Data: publication PMC8691691 (ACS Chemical Neuroscience, 2021)
Numbering of substitutions follows the chain as printed.

How the values were obtained:
GlyT2 = details: cited from earlier work
GlyT2 D635E mutant = target: T1, GlyT2 D635E mutant (Rattus norvegicus, UniProt P58295, D635E); assay: [3H]glycine transport by GlyT2 mutant in COS7 cells; format: cell-based; details: read-out: IC50 (Table S1)
T1 construct: expressed in transfected cells; host or cells: COS7
T1 sequence (P58295 1-799 D635E): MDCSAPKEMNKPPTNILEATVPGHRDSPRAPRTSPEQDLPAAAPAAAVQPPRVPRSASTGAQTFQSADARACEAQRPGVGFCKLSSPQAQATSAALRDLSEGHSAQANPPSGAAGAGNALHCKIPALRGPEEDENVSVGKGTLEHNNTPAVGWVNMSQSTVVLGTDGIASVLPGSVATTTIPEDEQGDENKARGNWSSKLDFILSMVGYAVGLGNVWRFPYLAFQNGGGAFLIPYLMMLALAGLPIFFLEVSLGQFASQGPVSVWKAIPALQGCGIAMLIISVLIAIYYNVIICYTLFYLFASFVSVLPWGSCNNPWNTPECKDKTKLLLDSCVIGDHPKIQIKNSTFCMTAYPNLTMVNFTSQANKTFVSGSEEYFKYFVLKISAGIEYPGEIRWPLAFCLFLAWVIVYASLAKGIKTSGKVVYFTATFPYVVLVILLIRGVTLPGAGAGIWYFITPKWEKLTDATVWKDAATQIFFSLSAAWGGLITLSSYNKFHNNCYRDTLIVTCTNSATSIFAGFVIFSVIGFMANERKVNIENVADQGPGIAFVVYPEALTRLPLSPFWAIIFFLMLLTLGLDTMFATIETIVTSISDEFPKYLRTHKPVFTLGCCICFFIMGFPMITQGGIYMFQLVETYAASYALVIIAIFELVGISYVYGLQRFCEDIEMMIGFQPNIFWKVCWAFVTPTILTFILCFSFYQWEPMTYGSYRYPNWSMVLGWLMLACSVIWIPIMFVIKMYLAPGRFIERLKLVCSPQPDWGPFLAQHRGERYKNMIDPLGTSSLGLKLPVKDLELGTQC

GlyT2 S481G mutant = target: T2, GlyT2 S481G mutant (Rattus norvegicus, UniProt P58295, S481G); assay: as above; format: cell-based
T2 construct: expressed in transfected cells; host or cells: COS7
T2 sequence (P58295 1-799 S481G): T1 sequence (P58295 1-799 D635E) with S481G, E635D

In the case of `COc1cc(C(=O)NCC2(N(C)C)CCCC2)cc(OC)c1OCc1ccccc1` [ORG25543, N-[[1-(dimethylamino)cyclopentyl]methyl]-3,5-dimethoxy-4-(phenylmethoxy)benzamide], the “reversibility of GlyT2 inhibition” value (GlyT2) is listed as “irreversible GlyT2 inhibitor”.

For `N[C@@H](COC(c1cccc(F)c1)c1ccccc1OCc1ccccc1)C(=O)O` (stereo partly shown) [ALX1393], the IC50 (GlyT2 D635E mutant) was 30 ± 4 nM, the “effect of mutation on inhibition of glycine transport” value (GlyT2 S481G mutant; S481G, 1 μM inhibitor, 25 μM glycine) was “more reduced inhibition potency for ALX1393 than for ORG25543” and the IC50 (GlyT2 S481G mutant; read-out: IC50 (Table S1)) was 75 ± 8 nM.
